Laboratory results reported in US5227487A, “Certain tricyclic and pentacyclic-hetero nitrogen rhodol dyes” (Molecular Probes, Inc., priority 1990, dated 1993).
Where “and” joins values, the source holds several entries; their conditions need not be identical. Equal values may be shown once.

What was measured:
[1] = Quantum yield relative to fluorescein; format: physicochemical; conditions: aqueous 50 mM phosphate buffer at pH 8.0-9.0; uncorrected
Procedure: (§1) An estimate of the quantum yield of the dyes relative to fluorescein (quantum yield=0.92 in 0.01M sodium hydroxide) was obtained by integrating the emission spectrum of the dye excited at the same wavelength and optical density as the standard. Approximate photostabilities of the rhodol derivatives, relative to fluorescein, were determined by measuring the time dependent decrease in fluorescence intensity, during continuous illumination, of equimolar solutions of the rhodol dyes and fluorescein.

[2] = pKa / pH dependence of absorption and emission; format: physicochemical
Procedure: | ^c In aqueous 50 mM phosphate buffer

[3] = Absorption spectra and extinction coefficients of rhodol dyes; format: physicochemical; conditions: aqueous 50 mM phosphate buffer at pH 8.0-9.0
Procedure: Stock solutions were prepared by accurately weighting and dissolving 5-10 mg samples of the compounds in 50 mM potassium phosphate buffer at pH 8.0. Absorbance solutions were prepared by further diluting the stock solution with 50 mM potassium phosphate buffer at pH 8.0.

[4] = Fluorescence emission spectra of rhodol dyes (uncorrected); format: physicochemical
Procedure: Uncorrected fluorescence data was obtained on a Perkin-Elmer Model 650-40 Fluorescence Spectrophotometer equipped with a Perkin-Elmer/Hitachi 057 X-Y recorder using a ten- to twentyfold dilution of the absorbance solutions. Fluorescence of the rhodol dyes was determined for the reactive dyes and for their conjugates with model compounds by dissolving the dye at a concentration above 1×10^-8 M in an appropriate solvent such as water, methanol or chloroform, followed by measurement of the fluorescence in a suitable instrument, such as a fluorescence spectrometer or fluorescence microscope.

[5] = Photobleaching / photostability relative to fluorescein; format: physicochemical; conditions: continuous illumination; equimolar solutions; 50 mM potassium phosphate pH 8.0 (FIG. 3)
Procedure: as §1

[6] = Absorption spectra and extinction coefficients of rhodol dyes; format: physicochemical; conditions: in methanol
[7] = background; cited from earlier work
[8] = background, cited from earlier work
[9] = cited from earlier work
[10] = background; cited from earlier work; remark: listed apart in the source
[11] = aqueous 50 mM phosphate buffer at pH 8.0-9.0

| Molecule | QY (quantum yield) [1] | Abs Max [3] [nm] | ε (extinction coefficient) [3] [M⁻¹ cm⁻¹] | Em Max [4, 11] [nm] | Abs Max [6] [nm] | Em Max ([4]; in methanol) [nm] | other results |
| --- | --- | --- | --- | --- | --- | --- | --- |
| 5(and -6)-carboxy-3'-hydroxy-6'-amino-spiro[isobenzofuran-1(3H,9'-[9H]xanthen-3- one [Compound 1] | 0.81 | 492 | 59900 | 517 |  |  | pKa ([2]; aqueous 50 mM phosphate buffer): 5.59; pH dependence of absorption and emission ([2]; aqueous solution, between pH 6 and 10, compared with fluorescein (FIG. 4)): less significant pH dependence; photostability / rate of photobleaching relative to fluorescein [5]: superior photostability |
| 5-(and -6)-carboxy-2',7'-dimethyl-3'-hydroxy-6'-N-ethylamino-spiro[isobenzofuran- 1(3H),9'-[9H]xanthen-3-one [Compound 12] | 0.81 | 510 | 54800 | 535 |  |  | pKa ([2]; aqueous 50 mM phosphate buffer): 5.82 |
| CCNc1cc2oc3cc(=O)c(CCC(=O)O)cc-3c(-c3ccccc3C(=O)O)c2cc1C [Compound 17] | 0.65 | 510 | 79400 | 534 |  |  | pKa ([2]; 50 mm phosphate buffer): 5.91 |
| O=C(O)c1ccc(C(=O)O)c(-c2c3cc(Cl)c(=O)cc-3oc3cc4c(cc23)CCCN4)c1 [Compound 24, 5-(and-6)-carboxy-2'-chloro-3'-hydroxy-1,2,3,4tetrahydropyridino[5,6-i]-spiro[isobenzofuran-1(3H),9'-[9H]xanthen-3-one] | 0.37 | 524 |  | 546 |  |  | pKa ([2]; 50 mm phosphate buffer): 4.50 |
| O=C(O)c1ccc(C(=O)O)c(-c2c3cc(Cl)c(=O)cc-3oc3c4c5c(cc23)CCCN5CCC4)c1 [Compound 28] | 0.31 | 547 | 74500 | 572 |  |  | pKa ([2]; 50 mm phosphate buffer): 5.11 |
| NCCCCCNC(=O)c1ccc(C(=O)O)c(-c2c3cc(Cl)c(=O)cc-3oc3c4c5c(cc23)CCCN5CCC4)c1 [Compound 30] |  |  | 57300 |  | 541 | 567 |  |
| NCCNC(=O)c1ccc(C(=O)O)c(-c2c3cc(Cl)c(=O)cc-3oc3c4c5c(cc23)CCCN5CCC4)c1 [Compound 31] |  |  |  |  | 540 | 568 |  |
| CCCCCCCCCCCCCCCCc1cc2c(-c3cc(C(=O)O)ccc3C(=O)O)c3cc4c5c(c3oc-2cc1=O)CCCN5CCC4 [Compound 34] |  | 547 |  | 572 | 531 | 562 | ε (extinction coefficient) [6]: 84400 M⁻¹ cm⁻¹ |
| O=C(O)CCc1cc2c(cc1O)Oc1c(cc3c4c1CCCN4CCC3)C21OC(=O)c2ccccc21 (stereo not drawn) [Compound 39, 3'-hydroxy-2,3,6,7-tetrahydro-1H, 5H-quinolizino[1,9-hi]-spiro[isobenzofuran-1(3H),9'-[9H]xanthen-3-one-2'-(3-propionic acid)] | 0.41 | 541 | 58200 | 562 |  |  | pKa ([2]; 50 mm phosphate buffer): 6.63 |
| C=CC(=O)NCCCCCNC(=O)CCc1cc2c(-c3ccccc3C(=O)O)c3cc4c5c(c3oc-2cc1=O)CCCN5CCC4 [Compound 42] |  | 544 |  | 571 |  |  |  |
| [N-]=[N+]=Nc1ccc(C(=O)NCCCCCNC(=O)CCc2cc3c(cc2O)Oc2c(cc4c5c2CCCN5CCC4)C32OC(=O)c3ccccc32)cc1 (stereo not drawn) [Compound 43] |  | 545 |  | 572 |  |  |  |
| O=C(CI)NCCCCCNC(=O)CCc1cc2c(-c3ccccc3C(=O)O)c3cc4c5c(c3oc-2cc1=O)CCCN5CCC4 [Compound 44] |  | 544 |  | 572 |  |  |  |
| O=C(CCc1cc2c(-c3ccccc3C(=O)O)c3cc4c5c(c3oc-2cc1=O)CCCN5CCC4)NCCCCCNC(=O)CN1C(=O)C=CC1=O [Compound 45] |  | 544 |  | 573 |  |  |  |
| NNC(=O)CCc1cc2c(-c3ccccc3C(=O)O)c3cc4c5c(c3oc-2cc1=O)CCCN5CCC4 [Compound 49] |  | 542 |  | 573 |  |  |  |
| NCCCCCNC(=O)CCc1cc2c(cc1O)Oc1c(cc3c4c1CCCN4CCC3)C21OC(=O)c2ccccc21 (stereo not drawn) [Compound 50] |  | 543 |  | 572 |  |  |  |
| O=c1cc2oc3c4c5c(cc3c(CCl)c-2cc1Cl)CCCN5CCC4 [Compound 51] |  |  |  |  | 563 | 578 |  |
| CCc1cc2c(C(=O)O)c3cc4c5c(c3oc-2cc1=O)CCCN5CCC4 [Compound 52] |  | 558 |  | 603 |  |  |  |
| O=C(O)CCc1cc2cc3cc4c5c(c3oc-2cc1=O)CCCN5CCC4 [Compound 54] | 0.44 | 538 | 69500 | 562 | 531 | 555 | ε (extinction coefficient) [6]: 81400 M⁻¹ cm⁻¹ |
| O=C(O)CCCCc1cc2cc3cc4c5c(c3oc-2cc1=O)CCCN5CCC4 [Compound 55] |  | 538 | 64100 | 562 | 532 | 556 | ε (extinction coefficient) [6]: 88700 M⁻¹ cm⁻¹ |
| O=C(O)CCCCCCCCCCCc1cc2cc3cc4c5c(c3oc-2cc1=O)CCCN5CCC4 [Compound 56] |  |  |  |  | 532 | 556 | ε (extinction coefficient) [6]: 84400 M⁻¹ cm⁻¹ |
| O=C(O)CCc1cc2c(C(F)(F)F)c3cc4c5c(c3oc-2cc1=O)CCCN5CCC4 [Compound 57] |  | 602 |  | 635 | 593 | 633 |  |
| N#Cc1c2cc(CCC(=O)O)c(=O)cc-2oc2c3c4c(cc12)CCCN4CCC3 [Compound 58] |  | 640 |  | 664 |  |  |  |
| O=C1OC2(c3ccc(O)cc3Oc3cc(O)ccc32)c2ccccc21 [Fluorescein] | 0.92 | 490 | 75000 | 514 |  |  | pH sensitivity [7]: pH dependent absorption spectrum; absorption intensity at 514 nm relative to maximum at 492 nm ([8]; 514 nm): less than 10%; absorptivity at peak ([8]; at absorption peak): 75,000 cm^-1 M^-1; absorption maximum [8]: 492 nm and ~490 nm; pKa ([2]; aqueous 50 mM phosphate buffer): 6.4; quantum yield of the standard ([9]; in 0.01M sodium hydroxide): 0.92 |
| CN(C)c1ccc2c(-c3ccccc3C(=O)[O-])c3ccc(N(C)C)cc3[o+]c2c1 [Tetramethylrhodamine] |  |  |  |  |  |  | pH sensitivity [7]: pH insensitive; quantum yield in alcohol ([9]; background, in alcohol): above 0.90; quantum yield in water ([9]; background, in water): approximately 0.23; photostability [10]: relatively photostable |
| Carboxyfluorescein [reference compound] | 0.78 | 491 | 75000 | 514 |  |  | pKa ([2]; 50 mm phosphate buffer): 6.4 |
| Carboxytetramethylrhodamine [reference compound] | 0.23 | 547 | 77000 | 574 |  |  |  |
